Test results published in ChEMBL document CHEMBL1147982, “Structure, inhibitor, and regulatory mechanism of Lyp, a lymphoid-specific tyrosine phosphatase implicated in autoimmune diseases” (Proc Natl Acad Sci U S A, 2007).
pIC50: −log10 of the molar value. Active and inactive are the calls of the source. No cut-off for these calls is given here.

Columns and labels:
[1] = target: T1, Tyrosine-protein phosphatase non-receptor type 11 (Homo sapiens, UniProt Q06124); assay: Inhibition of SHP2
T1 sequence (Q06124 whole entry): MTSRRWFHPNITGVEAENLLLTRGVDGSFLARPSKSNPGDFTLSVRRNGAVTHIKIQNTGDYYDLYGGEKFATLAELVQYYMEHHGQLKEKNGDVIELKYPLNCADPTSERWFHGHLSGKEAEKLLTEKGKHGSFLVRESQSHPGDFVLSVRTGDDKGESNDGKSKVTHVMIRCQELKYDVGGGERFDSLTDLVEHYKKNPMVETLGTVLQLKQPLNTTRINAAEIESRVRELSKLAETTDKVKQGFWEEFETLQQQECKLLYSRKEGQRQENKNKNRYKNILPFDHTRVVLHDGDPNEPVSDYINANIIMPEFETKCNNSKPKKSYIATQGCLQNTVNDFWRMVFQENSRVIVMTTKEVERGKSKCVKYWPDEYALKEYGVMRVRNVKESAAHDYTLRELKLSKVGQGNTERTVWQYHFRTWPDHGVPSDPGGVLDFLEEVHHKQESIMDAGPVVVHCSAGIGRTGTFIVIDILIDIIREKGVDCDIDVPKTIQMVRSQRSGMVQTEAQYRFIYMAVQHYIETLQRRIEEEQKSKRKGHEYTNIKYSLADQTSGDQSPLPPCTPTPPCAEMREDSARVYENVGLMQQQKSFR

[2] = target: Tyrosine-protein phosphatase non-receptor type 13 (Homo sapiens, UniProt Q12923); assay: Inhibition of FAP1
[3] = Inhibition of lymphoid-specific tyrosine phosphatase pLyp35 mutant
[4] = target: T2, Receptor-type tyrosine-protein phosphatase C (Homo sapiens, UniProt P08575); assay: Inhibition of CD45
T2 sequence (P08575 whole entry): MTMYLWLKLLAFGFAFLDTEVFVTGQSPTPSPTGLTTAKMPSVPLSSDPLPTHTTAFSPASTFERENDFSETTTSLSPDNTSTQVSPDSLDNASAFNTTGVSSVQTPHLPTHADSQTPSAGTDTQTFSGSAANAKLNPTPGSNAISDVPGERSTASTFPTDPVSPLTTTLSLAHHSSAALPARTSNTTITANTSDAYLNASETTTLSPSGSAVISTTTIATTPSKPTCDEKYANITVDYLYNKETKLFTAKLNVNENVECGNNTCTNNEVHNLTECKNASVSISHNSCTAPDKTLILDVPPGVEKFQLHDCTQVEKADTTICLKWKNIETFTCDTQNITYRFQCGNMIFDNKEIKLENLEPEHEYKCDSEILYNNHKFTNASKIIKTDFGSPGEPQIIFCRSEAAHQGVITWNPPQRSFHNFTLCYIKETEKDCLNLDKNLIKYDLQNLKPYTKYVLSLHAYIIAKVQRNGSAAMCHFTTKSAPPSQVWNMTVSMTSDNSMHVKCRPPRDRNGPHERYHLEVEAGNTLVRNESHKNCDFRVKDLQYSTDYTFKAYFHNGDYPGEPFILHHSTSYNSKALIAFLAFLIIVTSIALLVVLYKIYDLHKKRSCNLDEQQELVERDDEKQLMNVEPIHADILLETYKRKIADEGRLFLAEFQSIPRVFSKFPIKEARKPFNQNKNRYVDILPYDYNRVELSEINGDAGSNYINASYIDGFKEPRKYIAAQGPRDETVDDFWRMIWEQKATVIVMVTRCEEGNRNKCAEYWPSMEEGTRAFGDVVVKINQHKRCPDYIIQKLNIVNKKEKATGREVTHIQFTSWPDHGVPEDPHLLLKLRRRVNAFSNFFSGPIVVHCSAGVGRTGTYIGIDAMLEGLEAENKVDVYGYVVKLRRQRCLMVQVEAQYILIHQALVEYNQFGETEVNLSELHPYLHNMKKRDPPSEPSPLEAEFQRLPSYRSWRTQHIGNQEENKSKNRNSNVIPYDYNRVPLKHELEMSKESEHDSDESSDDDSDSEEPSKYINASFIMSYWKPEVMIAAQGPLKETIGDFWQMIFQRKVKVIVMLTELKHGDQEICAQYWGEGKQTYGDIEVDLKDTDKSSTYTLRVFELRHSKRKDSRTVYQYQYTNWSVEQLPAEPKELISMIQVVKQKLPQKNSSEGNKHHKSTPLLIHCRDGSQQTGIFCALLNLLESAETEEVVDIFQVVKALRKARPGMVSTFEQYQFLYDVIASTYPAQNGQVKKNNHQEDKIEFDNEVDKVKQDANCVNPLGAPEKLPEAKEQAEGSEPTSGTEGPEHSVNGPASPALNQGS

[5] = target: Receptor-type tyrosine-protein phosphatase alpha (Homo sapiens) (UniProt P18433); assay: Inhibition of PTPalpha at 100 uM
[6] = target: Receptor-type tyrosine-protein phosphatase F (Homo sapiens) (UniProt P10586); assay: Inhibition of LAR at 100 uM
[7] = target: T3, Tyrosine-protein phosphatase non-receptor type 7 (Homo sapiens, UniProt P35236); assay: Inhibition of HePTP
T3 sequence (P35236 whole entry): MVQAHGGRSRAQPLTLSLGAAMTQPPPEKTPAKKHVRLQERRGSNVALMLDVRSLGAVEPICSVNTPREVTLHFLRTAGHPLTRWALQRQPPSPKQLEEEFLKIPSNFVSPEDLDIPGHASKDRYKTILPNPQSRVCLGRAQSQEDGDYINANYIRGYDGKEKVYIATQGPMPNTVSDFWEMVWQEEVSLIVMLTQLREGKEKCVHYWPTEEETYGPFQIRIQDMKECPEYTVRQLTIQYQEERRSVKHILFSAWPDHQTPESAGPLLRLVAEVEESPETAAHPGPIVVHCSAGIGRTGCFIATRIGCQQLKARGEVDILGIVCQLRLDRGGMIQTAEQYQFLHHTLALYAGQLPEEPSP

[8] = target: T4, Tyrosine-protein phosphatase non-receptor type 9 (Homo sapiens, UniProt P43378); assay: Inhibition of PTP-Meg2
T4 sequence (P43378 whole entry): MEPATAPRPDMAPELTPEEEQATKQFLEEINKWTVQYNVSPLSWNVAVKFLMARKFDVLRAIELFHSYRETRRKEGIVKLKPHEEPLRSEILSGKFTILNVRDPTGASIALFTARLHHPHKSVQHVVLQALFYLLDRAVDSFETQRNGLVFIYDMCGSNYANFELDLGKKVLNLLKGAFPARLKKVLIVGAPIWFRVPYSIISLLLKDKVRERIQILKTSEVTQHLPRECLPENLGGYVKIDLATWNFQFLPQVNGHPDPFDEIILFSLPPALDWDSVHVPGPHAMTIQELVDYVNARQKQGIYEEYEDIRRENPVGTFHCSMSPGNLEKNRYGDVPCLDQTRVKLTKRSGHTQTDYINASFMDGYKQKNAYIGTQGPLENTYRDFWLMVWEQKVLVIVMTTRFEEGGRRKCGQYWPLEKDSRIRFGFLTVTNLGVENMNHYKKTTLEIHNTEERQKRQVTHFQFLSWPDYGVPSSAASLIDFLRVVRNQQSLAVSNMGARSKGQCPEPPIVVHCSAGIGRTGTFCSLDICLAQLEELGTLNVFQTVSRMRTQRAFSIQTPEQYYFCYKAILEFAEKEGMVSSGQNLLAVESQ

[9] = target: Dual specificity protein phosphatase 3 (Homo sapiens, UniProt P51452); assay: Inhibition of VHR
[10] = target: T5, Tyrosine-protein phosphatase non-receptor type 1 (Homo sapiens, UniProt P18031); assay: Inhibition of PTP1B
T5 sequence (P18031 whole entry): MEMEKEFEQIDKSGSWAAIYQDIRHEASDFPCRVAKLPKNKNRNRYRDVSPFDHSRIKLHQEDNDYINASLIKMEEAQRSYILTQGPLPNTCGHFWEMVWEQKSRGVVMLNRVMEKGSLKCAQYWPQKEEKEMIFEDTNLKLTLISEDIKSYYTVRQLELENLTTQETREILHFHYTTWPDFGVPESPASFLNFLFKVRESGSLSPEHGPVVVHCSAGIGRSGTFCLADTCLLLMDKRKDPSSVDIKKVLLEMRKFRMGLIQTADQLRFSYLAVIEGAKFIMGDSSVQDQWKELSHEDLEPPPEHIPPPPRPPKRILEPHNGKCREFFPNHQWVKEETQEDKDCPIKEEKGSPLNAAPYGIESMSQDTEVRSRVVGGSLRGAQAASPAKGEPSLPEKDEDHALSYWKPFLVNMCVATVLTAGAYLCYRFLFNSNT

Sequence of Tyrosine-protein phosphatase non-receptor type 13 (Q12923 whole entry): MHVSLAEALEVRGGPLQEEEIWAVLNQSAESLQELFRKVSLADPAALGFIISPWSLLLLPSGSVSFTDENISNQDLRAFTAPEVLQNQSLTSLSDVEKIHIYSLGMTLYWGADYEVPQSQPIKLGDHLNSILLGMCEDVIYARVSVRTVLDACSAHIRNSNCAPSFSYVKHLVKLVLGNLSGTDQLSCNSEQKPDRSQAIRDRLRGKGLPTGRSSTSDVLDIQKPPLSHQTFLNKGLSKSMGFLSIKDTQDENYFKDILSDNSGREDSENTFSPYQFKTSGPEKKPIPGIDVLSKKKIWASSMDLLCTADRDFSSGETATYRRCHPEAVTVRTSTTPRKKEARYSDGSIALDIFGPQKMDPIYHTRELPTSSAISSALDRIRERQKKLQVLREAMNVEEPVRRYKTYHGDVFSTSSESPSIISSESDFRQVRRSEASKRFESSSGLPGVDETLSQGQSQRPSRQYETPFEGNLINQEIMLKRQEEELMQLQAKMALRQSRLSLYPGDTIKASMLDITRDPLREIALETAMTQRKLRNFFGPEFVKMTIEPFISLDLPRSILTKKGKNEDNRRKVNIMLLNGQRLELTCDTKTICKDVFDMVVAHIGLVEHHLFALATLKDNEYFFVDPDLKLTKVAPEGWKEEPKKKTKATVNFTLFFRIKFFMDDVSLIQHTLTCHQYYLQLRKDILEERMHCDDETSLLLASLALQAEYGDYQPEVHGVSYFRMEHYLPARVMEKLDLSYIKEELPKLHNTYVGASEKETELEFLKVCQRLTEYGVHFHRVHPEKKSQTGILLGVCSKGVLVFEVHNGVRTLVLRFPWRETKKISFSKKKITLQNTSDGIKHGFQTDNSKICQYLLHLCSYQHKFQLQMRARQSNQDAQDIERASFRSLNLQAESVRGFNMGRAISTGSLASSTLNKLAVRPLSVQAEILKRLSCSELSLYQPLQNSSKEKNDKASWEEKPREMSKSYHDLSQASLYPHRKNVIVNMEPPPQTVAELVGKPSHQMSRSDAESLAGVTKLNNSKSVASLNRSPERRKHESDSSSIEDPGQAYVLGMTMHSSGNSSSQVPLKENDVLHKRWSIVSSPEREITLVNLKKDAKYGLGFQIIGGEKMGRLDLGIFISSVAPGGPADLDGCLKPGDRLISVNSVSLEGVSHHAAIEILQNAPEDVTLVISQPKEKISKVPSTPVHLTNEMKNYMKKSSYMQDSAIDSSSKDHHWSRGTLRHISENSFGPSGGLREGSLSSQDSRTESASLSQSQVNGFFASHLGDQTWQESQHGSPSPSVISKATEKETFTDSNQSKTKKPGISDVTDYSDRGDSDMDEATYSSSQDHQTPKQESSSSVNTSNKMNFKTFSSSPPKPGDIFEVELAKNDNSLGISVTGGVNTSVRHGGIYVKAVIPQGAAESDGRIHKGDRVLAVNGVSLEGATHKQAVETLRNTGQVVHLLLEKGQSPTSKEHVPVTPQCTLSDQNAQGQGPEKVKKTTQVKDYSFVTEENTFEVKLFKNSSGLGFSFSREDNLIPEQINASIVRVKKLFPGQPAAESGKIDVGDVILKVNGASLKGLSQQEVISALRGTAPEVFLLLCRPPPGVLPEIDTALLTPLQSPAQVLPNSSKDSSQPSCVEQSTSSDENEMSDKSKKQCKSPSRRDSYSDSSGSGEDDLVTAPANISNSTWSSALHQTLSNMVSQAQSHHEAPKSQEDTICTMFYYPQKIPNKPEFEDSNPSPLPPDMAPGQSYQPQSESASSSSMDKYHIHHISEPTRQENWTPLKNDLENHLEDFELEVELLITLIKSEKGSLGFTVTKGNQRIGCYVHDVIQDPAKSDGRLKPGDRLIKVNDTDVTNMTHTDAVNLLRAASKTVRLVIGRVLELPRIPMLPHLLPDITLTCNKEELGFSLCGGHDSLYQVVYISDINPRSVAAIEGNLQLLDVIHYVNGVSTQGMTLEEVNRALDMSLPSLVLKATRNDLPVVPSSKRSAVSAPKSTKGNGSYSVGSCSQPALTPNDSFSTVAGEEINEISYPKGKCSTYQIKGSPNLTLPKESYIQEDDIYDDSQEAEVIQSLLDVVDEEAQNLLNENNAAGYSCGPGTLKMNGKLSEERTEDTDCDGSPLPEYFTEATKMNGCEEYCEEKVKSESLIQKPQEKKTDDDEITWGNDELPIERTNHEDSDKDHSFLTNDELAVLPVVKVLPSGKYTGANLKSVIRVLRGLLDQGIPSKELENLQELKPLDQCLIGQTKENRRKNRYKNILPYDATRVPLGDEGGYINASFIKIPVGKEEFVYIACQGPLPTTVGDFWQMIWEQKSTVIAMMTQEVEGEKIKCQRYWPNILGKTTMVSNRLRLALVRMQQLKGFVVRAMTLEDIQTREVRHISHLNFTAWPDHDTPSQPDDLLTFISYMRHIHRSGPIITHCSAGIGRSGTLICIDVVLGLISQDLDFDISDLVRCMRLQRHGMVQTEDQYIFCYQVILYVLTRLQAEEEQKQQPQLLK
Sequence of Dual specificity protein phosphatase 3 (P51452 whole entry): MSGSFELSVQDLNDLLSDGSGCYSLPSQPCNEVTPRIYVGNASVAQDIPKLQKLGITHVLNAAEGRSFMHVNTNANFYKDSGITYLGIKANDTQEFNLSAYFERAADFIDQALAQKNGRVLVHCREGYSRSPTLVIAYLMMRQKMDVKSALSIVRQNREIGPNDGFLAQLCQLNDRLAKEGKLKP
Sequence of Receptor-type tyrosine-protein phosphatase alpha (Homo sapiens) (P18433 20-802 limits assumed): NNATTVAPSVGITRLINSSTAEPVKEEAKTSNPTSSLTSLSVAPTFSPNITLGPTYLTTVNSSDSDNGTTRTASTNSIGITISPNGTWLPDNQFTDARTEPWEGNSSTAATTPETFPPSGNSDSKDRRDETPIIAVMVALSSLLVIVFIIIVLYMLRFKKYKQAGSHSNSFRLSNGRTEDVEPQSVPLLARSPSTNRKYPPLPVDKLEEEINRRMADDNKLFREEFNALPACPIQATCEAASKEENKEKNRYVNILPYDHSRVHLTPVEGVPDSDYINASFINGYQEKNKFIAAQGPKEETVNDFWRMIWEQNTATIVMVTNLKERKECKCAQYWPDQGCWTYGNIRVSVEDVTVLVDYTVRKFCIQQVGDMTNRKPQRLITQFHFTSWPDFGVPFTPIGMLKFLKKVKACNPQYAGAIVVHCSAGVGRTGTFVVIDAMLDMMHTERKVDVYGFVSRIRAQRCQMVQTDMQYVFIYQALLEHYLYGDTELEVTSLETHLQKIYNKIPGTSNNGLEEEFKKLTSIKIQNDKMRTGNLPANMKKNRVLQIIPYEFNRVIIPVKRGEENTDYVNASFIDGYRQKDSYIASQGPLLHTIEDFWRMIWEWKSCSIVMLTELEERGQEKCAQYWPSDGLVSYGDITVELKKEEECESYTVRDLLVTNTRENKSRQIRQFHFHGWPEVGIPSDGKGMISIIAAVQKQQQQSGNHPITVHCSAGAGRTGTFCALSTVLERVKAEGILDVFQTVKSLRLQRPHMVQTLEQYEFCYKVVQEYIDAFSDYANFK

## O=C(CCCn1cc(-c2c(-c3ccccc3)oc3cc(O)c(C(=O)O)cc23)nn1)Nc1cccc2ccccc12
[1]
  pIC50: 4.44
[2]
  pIC50: 4.43
[3]
  pIC50: 4.32
[4]
  pIC50: 3.73
[5]
  Activity: inactive
[6]
  Activity: inactive
[7]
  pIC50: 4.49
[8]
  pIC50: 4.50
[9]
  pIC50: 3.99
[10]
  pIC50: 4.93
